From patent US20120035180A1, “PHARMACEUTICAL COMPOSITION FOR TREATING CANCER COMPRISING CHLORIN E6-FOLIC ACID CONJUGATE COMPOUND AND CHITOSAN” (priority 2009, published 2012)

Assays:
Hela cells [1] = assay: Phototoxicity, 24 h incubation, 1.5-15 joule/cm^2; format: cell-based; conditions: 670-690 nm
Experimental: In other experiment, the cells were incubated with photosensitizers at 37° C. for 24 hours, and irradiated by exposed on ice by a laser medical device “LD 680-2000” (wavelength of 670-690 nm) in a dose of 1.5-15 joule/cm^2.

[2] = Generation of singlet oxygen (luminescence at 1270 nm); format: physicochemical; conditions: air saturated buffer solution, room temperature
Experimental: Based on new Hamamatsu FEU with InP/InGaAsP semi-conductor photocathodes, a highly sensitive laser fluorometer for registration of luminescence signals in the range of 950-1400 nm with nanosecond time resolution was used.
Photoresponse of this process (φΔ) was measured by a relative method through integral intensity of singlet oxygen luminescence at a wavelength of 1270 nm. Excitation was conducted at a wavelength of 531 nm (pulse energy 4 microJ, frequency 1kHz). Tests were made in air saturated buffer solutions at room temperature. […] The φΔ in D2O was considered as 0.7.
To analyze kinetic curves of singlet oxygen luminescence, the following function was used:
wherein A is a coefficient depending on initial concentrations of interacted reagents, and k1 and k2 are constants of luminescence signal increase and extinction, respectively.
In the case when the deactivation rate constant Kτ of the photosensitizer triplet state exceeds the deactivation rate constant KΔ of the molecular oxygen […] state, the constant of increase k1 corresponds to Kτ, and constant of extinction k2 corresponds to KΔ. In the case of Kτ<KΔ, inversion of the kinetics of singlet oxygen luminescence occurs. In this case, k2=Kτ and k1=KΔ. […] Thus, based on kinetic data, the life times of singlet oxygen and triplet state can be calculated.

[3] = Spectral and fluorescent parameters of chlorin e6 conjugate in different systems; format: physicochemical
Experimental: Pigment-protein complexes have been formed by adding to the solution of human serum albumin (HAS) a specific amount of photosensitizer dissolved in the same buffer. […] Similarly, the photosensitizer was included in detergent micelle (Triton X-100, C=10^−3M).
The electronic absorption spectra of the subject solution were recorded on Specord UV-Vis. The fluorescence spectra and value of degree of fluorescence polarization (P) were recorded on an automatic spectrofluorimeter (Institute of Physics). Life time of photosensitizer fluorescence (ts) was estimated using an impulse fluorometer operating in the mode of photons counting.
The main feature of the absorption spectrum is intensive (ε=4.8 10^4 M^−1cm^−1) Qx (0-0) band at 660 nm, which falls into the spectral window of the majority of biological tissues.
Complex formation of chlorin e6 conjugate, and HSA, liposomes or detergent micelles leads to bathochromic shift in the absorption and fluorescence spectra of pigment. However, an increase in fluorescence photoresponse (B) was observed, which correlates with the growth of life time (ts) without changing of the Kravec integral value.

sarcoma M-1 = assay: Necrotic area in sarcoma M-1 after PDT; format: in vivo, rats; conditions: 10.0 mg/kg, 1 hr exposure after application
Experimental: After fixation, transverse sections of the tumor nodule in its highest diameter were made, and pictures were taken by a camera connected to a computer.
For quantitative assessment of necroses formed after PDT, computer analysis of color tints of histo-topographic tumor slides was performed using a special program.
The program included an algorithm of blue color identification (Evans blue), which stained viable areas of the tumor. Tumor areas killed from direct cytotoxic effect or due to structural-functional disorders of microcirculation were not stained in blue. The ratio of all non-stained dots to the total amount of dots in the fence of the tumor slide was considered to be the destruction efficiency.
For this purpose, a laser medical instrument “ ? 680-2000” (BIOSPEC, Moscow) was used to perform the exposure at a wavelength of 670 nm in a dose of 100 J/cm^2. The power density was 0.51 W/cm^2, the output power was 0.4 W, and the spot light diameter was 1 cm. Time of exposure was […]. Monitoring over radiating power was conducted by a universal power meter included in the laser device “ ? 680-2000”.

Hela cells [4] = assay: Competition assay with exogenous folic acid in Hela cells; format: cell-based; conditions: 4 μM/l folic acid, 24 hours
Source text: Then, the sample was centrifuged, the supernatant was taken, and the pellet was rewashed with cooled Hank's solution. The obtained pellet was again transferred into Hank's solution.

[5] = Photophysical parameters (triplet state, intercombinative conversion); format: physicochemical
Experimental: Values of ? and ? were determined after substantially transferring of all molecules of the studied substance in excited triplet state. In such conditions, ΔD=C Δε^Tl, wherein C indicates the molar concentration of the substance in solution, and l indicates the length of the optical way. As the standard to estimate γ, Pd(II)-octa ethyl porphyrin (Pd(II)-OEP) was selected, for which the γ value in benzol was considered as equal to one.

Hela cells [6] = assay: Accumulation in Hela cells; format: cell-based; conditions: for concentration in Hela cells: 2×10^−7 M/l, 37° C.
Experimental: The cellular accumulation and the targeted delivery of the photoactive compounds were investigated using Hela cells, which is one of the numerous tumor cell types that overexpress folate receptors.
Cells were cultivated for 3 days in medium 199, and transferred to Hank's solution/medium 199 (9/1). After 3 hours, the cell were collected by trypsin treatment from the substrate and placed in Hank's solution (10^5 κπ/ml). To cell suspensions, chlorin e6 conjugates were added at a concentration of 2×10^−7 M/l, and incubated at 37° C. After 1, 5, 10, 15, and 24 hours, the samples were centrifuged, the pellet was washed with the cooled Hank's solution, and transferred to Hank's solution at a concentration being equal to that in the initial suspension.

[γ-(6-aminohexyl)folic acid]-chlorin e6 [chlorin e6 conjugate]
phototoxicity / photosensitivity in survival test (Hela cells [1]): improved the photosensitivity
τt (life time in the triplet state) from singlet oxygen luminescence kinetics [2]: 2.0±0.2 microsec.
τΔ (life time of singlet oxygen) from luminescence kinetics [2]: 3.6±0.2 microsec.
1^00fl ([3]; Dimethyl sulfoxide): 672 nm
absorption maximum wavelength (Qx 0-0 band) ([3]; Dimethyl sulfoxide): 661 Nm
1^00fl ([3]; H2O, pH 8.1): 664 nm
absorption maximum wavelength (Qx 0-0 band) ([3]; H2O, pH 8.1): 657 Nm
1^00fl ([3]; HSA, pH 8.1): 669 nm
absorption maximum wavelength (Qx 0-0 band) ([3]; HSA, pH 8.1): 664 Nm
1^00fl ([3]; Liposomes, pH 8.1): 670 nm
absorption maximum wavelength (Qx 0-0 band) ([3]; Liposomes, pH 8.1): 665 Nm
1^00fl ([3]; Methanol): 667 nm
absorption maximum wavelength (Qx 0-0 band) ([3]; Methanol): 662 Nm
1^00fl ([3]; Pyridine): 673 nm
absorption maximum wavelength (Qx 0-0 band) ([3]; Pyridine): 666 Nm
1^00fl ([3]; Tetrahydrofuran): 673 nm
absorption maximum wavelength (Qx 0-0 band) ([3]; Tetrahydrofuran): 667 Nm
1^00fl ([3]; Triton X-100, pH 8.1): 670 nm
absorption maximum wavelength (Qx 0-0 band) ([3]; Triton X-100, pH 8.1): 665 Nm
anti-tumor effect of PDT (sarcoma M-1): most prominent anti-tumor effect
effect of free folic acid on uptake in Hela cells (Hela cells [4]): significantly reduced
τt (lifetime of excited triplet state, oxygen saturated) ([5]; H2O, pH 8.1): 2.5 μs
τt^0 (lifetime of excited triplet state, deoxygenated) ([5]; H2O, pH 8.1): 170 μs
τt (lifetime of excited triplet state, oxygen saturated) ([5]; HSA, H2O, pH 8.1): 14.7 μs
τt^0 (lifetime of excited triplet state, deoxygenated) ([5]; HSA, H2O, pH 8.1): 700 μs
τt (lifetime of excited triplet state, oxygen saturated) ([5]; Liposomes, H2O, pH 8.1): 1.4 μs
τt^0 (lifetime of excited triplet state, deoxygenated) ([5]; Liposomes, H2O, pH 8.1): 70 μs
γ (photoresponse of intercombinative conversion) ([5]; Liposomes, H2O, pH 8.1, standard Pd(II)-OEP): 078
τt (lifetime of excited triplet state, oxygen saturated) ([5]; Pyridine): 0.3 μs
τt^0 (lifetime of excited triplet state, deoxygenated) ([5]; Pyridine): 140 μs
τt (lifetime of excited triplet state, oxygen saturated) ([5]; Triton X-100): 2.6 μs
τt^0 (lifetime of excited triplet state, deoxygenated) ([5]; Triton X-100): 230 μs
concentration in Hela cells (Hela cells [6]; incubation time 1 hours): 0.40 relative units/10^4cl.
concentration in Hela cells (Hela cells [6]; incubation time 5 hours): 1.80 relative units/10^4cl.
concentration in Hela cells (Hela cells [6]; incubation time 10 hours): 2.50 relative units/10^4cl.
concentration in Hela cells (Hela cells [6]; incubation time 15 hours): 12.5 relative units/10^4cl.
concentration in Hela cells (Hela cells [6]; incubation time 24 hours): 15.0 relative units/10^4cl.
kinetic of binding with cells (Hela cells [6]; Hela cells): increases linearly over 20 hours
